Measured values published in patent US20030134342A1, “Binding-specific peptides, binding-specific carrier molecules, and uses thereof” (priority 2001, published 2003).
Where a SMILES comes first, the peptide text is derived from it.

Key:
[1] = system: human myeloid leukemia cell line HL60; assay: Proliferation of HL60 cells: cell number after 7 days culture; assay type: cell-based; settings: for No. Cells: HL60, after 7 days; for Percent relative to Controls: HL60 cell number after 7 days
Source text: The number of cells after 7 days culture growth were counted in the presence or absence of the different molecules. Results are shown for the free G5 12-8B peptide alone (artificially synthesized), phage displaying G5 12-8B, the free A2 11-24 peptide, phage displaying the A2 11-24 peptide, a combination of the free G5 and A2 peptides, a combination of the free pure with phage displaying the peptides, and several concentrations of peptide.
(§1) Such inhibition is not the result of the killing of the cells. The data are graphed in the Figures.
The control number of cells per milliliter (2.6) is an average of results from dual controls (2.6×10^6).
(§2) DMSO, dimethylsulfoxide, is a chemical that induces HL60 cellular differentiation.

[2] = system: human myeloid leukemia cell line HL60; assay: Viability of HL60 cells, trypan blue; assay type: cell-based; settings: for Day 5 Viability: 5 day; for Day 7 Viability: 7 day; for Day 9 Viability: 9 day
Protocol: (§3) Studies were conducted of the effects of the free G5 12-8B (artificially synthesized), phage displaying G5 12-8B, the free A2 11-24 peptide, phage displaying the A2 11-24 peptide, a combination of the free G5 and A2 peptides, a combination of pure peptides plus phage displaying the peptides, and several concentrations of peptide.

[3] = system: human myeloid leukemia cell line HL60; assay: Differentiation of HL60 cells; assay type: cell-based
[4] = system: human myeloid leukemia cell line HL60; assay: Differentiation of HL60 cells; assay type: cell-based; remark: listed apart in the source
Source text: FIG. 1 illustrates the effects of several peptides on the differentiation of the human myeloid leukemia cell line HL60.
as §1, §2
The level of differentiation of the HL60 cells after 5 or 7 days growth in the presence or absence of the various phage and peptides combinations described above are shown in FIG. 1. The high level of differentiation that has been achieved is notable from the graph in FIG. 1. The levels of differentiation in the presence of peptide exceed that produced by the presence of phage alone.

[5] = Viability of HL60 cells, trypan blue; assay type: cell-based; settings: human
Protocol: as §3

CLL cells = assay: ELISA binding of phage displaying peptides to fixed cells: CLL cells; parameters: species or system human; settings: in words
Protocol: (§4) Preliminary experiments were performed to identify specific peptides by using cells from patients diagnosed with CLL, CML, and AML. The screening was performed by incubating the cells with the phage-peptides from the library. This incubation allows interaction between the peptide and the cell. The binding step was followed by several washes to eliminate free phage. Phage bound on the cell surface was eluted.
(§5) After the last round of binding with one cell type, the eluted phage was plated on an agar plate with the appropriate selection antibiotics. Each individual colony, corresponding to one individual peptide sequence, was amplified in a 96-well plate. After purification, these peptides were tested for their ability to bind to the cells in a microtiter plate by ELISA.
(§6) Each peptide was dispensed in a 96-well plate, containing cells previously fixed. Each colony was tested in a triplicate assay with the appropriate controls. After incubation of cells with an individual clone, the wells were washed to eliminate free phage. The bound phages were detected by using a monoclonal anti-M13 antibody/horseradish peroxidase (HRP) conjugate. After addition of the HRP substrate, the intensity of the coloration was measured by spectrophotometry. The light absorbance values (optical density values, O.D. values) are proportional to the number of phage bound to the cells.
(§7) The binding to various cell types were examined to evaluate the cellular specificity of the phage clones. For example, the clones from phage eluted from CLL patient cells were assayed for their ability to bind cells from an AML patient. Cells from normal donors (non-leukemic) were also evaluated to ascertain leukemia cell specificity.
(§8) Peripheral blood and bone marrow samples were collected from patients after informed consent. The samples were collected in tubes containing sodium citrate. Mononuclear cells were isolated by Ficoll-Hypaque density gradient separation and collection of the cells at a density of 1.077 g/mL.
(§9) The wells of a 96-well plate were pre-treated with 100 μL of poly-L-lysine (0.01 mg/mL in phosphate-buffered saline, 120 mM NaCl, 2.7 mM KCl, 10 mM phosphate buffer, “PBS”) for 2-16 hours at room temperature. After draining the poly-L-lysine from the wells, the excess poly-L-lysine was removed from the wells by flicking. The cells were washed with PBS, then suspended in PBS and diluted to a final concentration of […]. The cell suspension (200 μL; 250,000 cells) were added to each well needed for the assay.
(§10) The plates were centrifuged at 500 g for about 5 minutes in a microplate carrying centrifuge when available. The cells were fixed to the wells through the addition of glutaraldehyde (100 μL of 0.5%) and incubating at room temperature for about an hour. The glutaraldehyde was removed and the cell-coated wells washed once with PBS. Alternatively, the cells were permitted to settle to the well bottoms for about 4 hours at 37° C., and the glutaraldehyde fixative was added after removing the PBS.
(§11) A glycine solution (200 μl of 0.1 M glycine in PBS) containing bovine serum albumin (BSA; 1%) was added to the wells and permitted to incubate for 30 minutes to block excess glutaraldehyde. The glycine was removed, and the cell-coated wells washed once with PBS. A sodium pyrophosphate solution (200 μL of 0.3 mg/mL NaPPi) was added to the wells and incubated for an hour at room temperature to neutralize lysine charges. The pyrophosphate solution was removed and the wells washed once with PBS. Multiwell microtiter plates with cell-coated wells were stored at 4° C. with fresh PBS solution in the coated wells.
(§12) The cells to be studied for binding were suspended in PBS and adsorbed onto to a poly-L-lysine pretreated 96-well plate and kept at 4° C. The PBS was removed from the wells and an H2O2 solution in PBS (6% H2O2 in 200 μL/well) was added. […]

AML cells = assay: ELISA binding of phage displaying peptides to fixed cells: AML cells; parameters: species or system human; settings: in words
Protocol: as §4, §5, §6, §7, §8, §9, §10, §11, §12

[6] = system: all myeloid cells, both malignant and nonmalignant; assay: ELISA binding of phage displaying peptides to fixed cells: all myeloid cells; parameters: species or system human; settings: in words
Protocol: as §4, §5, §6, §7, §8, §9, §10, §11, §12

[7] = system: normal peripheral blood cells (lymphocytes and granulocytes); assay: ELISA binding of phage displaying peptides to fixed cells: normal peripheral blood cells; parameters: species or system human; settings: in words
Protocol: as §4, §5, §6, §7, §8, §9, §10, §11, §12

CML cells = assay: ELISA binding of phage displaying peptides to fixed cells: CML cells; parameters: species or system human; settings: in words
Protocol: as §4, §5, §6, §7, §8, §9, §10, §11, §12

[8] = system: human bone marrow AML cells; assay: Effect of phage-peptides on differentiation, cell number and viability of freshly obtained AML patient bone marrow cells cultured seven days; assay type: cell-based; settings: for Number of Cells / Percent Differentiation: phage-peptides; for Percent differentiated in Specimen 1 / Percent differentiated in Specimen 2: peptides in bacteriophage, AML cells cultured seven days in vitro
Source text: The effect of various phage-peptides were studied on the differentiation of cells from two AML patients.

Compound: CC[C@H](C)[C@H](NC(=O)[C@@H](N)CS)C(=O)N[C@@H](CCC(=O)O)C(=O)N[C@@H](CCC(=O)O)C(=O)N[C@H](C(=O)N[C@@H](C)C(=O)N[C@@H](CCCNC(=N)N)C(=O)N[C@@H](CCCCN)C(=O)NCC(=O)N[C@@H](CS)C(=O)O)[C@@H](C)O [A2 11-24 peptide] (H-CIEETARKGC-OH; N-terminus and C-terminus assumed)
- No. Cells ([1]; free peptide at 10^−4 M): 2.0 10^6 cell/mL
- Percent relative to Controls ([1]; free peptide at 10^−4 M): 77%
- Day 5 Viability [2]: 100%
- Day 7 Viability [2]: 96%
- Day 9 Viability [2]: 87%
- Day 9 % Diff. ([3]; free peptide at 10^−4 M): 25%
- Day 5 % Diff. ([4]; free peptide at 10^−4 M): 18%
- Day 5 % Diff., figure in parentheses ([4]; free peptide at 10^−4 M): 150%
- Day 7 % Diff. ([4]; free peptide at 10^−4 M): 30%
- Day 7 % Diff., figure in parentheses ([4]; free peptide at 10^−4 M): 188%

Compound: C[S+](C)[O-] [DMSO, dimethylsulfoxide, reference compound]
- No. Cells ([1]; concentration not given): 0.9 10^6 cell/mL
- Percent relative to Controls ([1]; concentration not given): 30%
- viability at 5 days [5]: 98%
- viability at 7 days [5]: 97%
- viability at 9 days [5]: 82%
- Day 9 % Diff. ([3]; concentration not given): off scale
- Day 5 % Diff. ([4]; concentration not given): off scale
- Day 7 % Diff. ([4]; concentration not given): off scale

Compound: NCCCC[C@H](NC(=O)CNC(=O)[C@H](CO)NC(=O)[C@H](Cc1c[nH]c2ccccc12)NC(=O)[C@H](CCC(N)=O)NC(=O)[C@H](CCC(N)=O)NC(=O)[C@H](Cc1ccccc1)NC(=O)[C@H](CCC(=O)O)NC(=O)[C@@H](N)CS)C(=O)N[C@@H](CS)C(=O)O [G5 12-8B peptide] (H-CEFQQWSGKC-OH; N-terminus and C-terminus assumed)
- No. Cells ([1]; free peptide at 10^−4 M): 1.2 10^6 cell/mL
- Percent relative to Controls ([1]; free peptide at 10^−4 M): 48%
- Day 5 Viability [2]: 98%
- Day 7 Viability [2]: 96%
- Day 9 Viability [2]: 90%
- Day 9 % Diff. ([3]; free peptide at 10^−4 M): 22%
- Day 5 % Diff. ([4]; free peptide at 10^−4 M): 22%
- Day 5 % Diff., figure in parentheses ([4]; free peptide at 10^−4 M): 183%
- Day 7 % Diff. ([4]; free peptide at 10^−4 M): 31%
- Day 7 % Diff., figure in parentheses ([4]; free peptide at 10^−4 M): 194%

Compound: CEFQQWSGKC [G5 12-8B]
- binding of phage displaying the peptide to CLL cells (CLL cells): bind
- binding of phage displaying the peptide to AML cells (AML cells): bind
- binding of phage displaying the peptide to all myeloid cells, both malignant and nonmalignant [6]: bind
- binding of phage displaying the peptide to blood cells (lymphocytes or granulocytes) [7]: bind
- binding of phage displaying the peptide to CML cells (CML cells): bind

Compound: EFQQWSGK [G5 12-8B phage]
- No. Cells ([1]; phage 75): 3.8 10^6 cell/mL
- Percent relative to Controls ([1]; phage 75): 140%
- Number of Cells ([8]; Patient 1): 1.11 106
- Percent Differentiation ([8]; Patient 1): 27.9%
- Number of Cells ([8]; Patient 2, listed as GS-12-8B): 0.31 106
- Percent Differentiation ([8]; Patient 2, listed as GS-12-8B): 61%
- Percent differentiated in Specimen 1 [8]: 28%
- Percent differentiated in Specimen 2 [8]: 61%
- Day 9 % Diff. ([3]; phage 75): 46%
- Day 5 % Diff. ([4]; phage 75): 17%
- Day 5 % Diff., figure in parentheses ([4]; phage 75): 142%
- Day 7 % Diff. ([4]; phage 75): 46%
- Day 7 % Diff., figure in parentheses ([4]; phage 75): 288%

Compound: IEETARKG [A2 11-24 phage]
- No. Cells ([1]; phage 75): 1.6 10^6 cell/mL
- Percent relative to Controls ([1]; phage 75): 62%
- Number of Cells ([8]; Patient 1): 0.75 106
- Percent Differentiation ([8]; Patient 1): 79.2%
- Number of Cells ([8]; Patient 2): 0.33 106
- Percent Differentiation ([8]; Patient 2): 49.5%
- Percent differentiated in Specimen 1 [8]: 79%
- Percent differentiated in Specimen 2 [8]: 50%
- Day 9 % Diff. ([3]; phage 75): 64%
- Day 5 % Diff. ([4]; phage 75): 18%
- Day 5 % Diff., figure in parentheses ([4]; phage 75): 150%
- Day 7 % Diff. ([4]; phage 75): 52%
- Day 7 % Diff., figure in parentheses ([4]; phage 75): 325%

Compound: IEETARKG [D9 12-8B]
- binding of phage displaying the peptide to CLL cells (CLL cells): bind
- binding of phage displaying the peptide to AML cells (AML cells): bind
- binding of phage displaying the peptide to all myeloid cells, both malignant and nonmalignant [6]: bind
- binding of phage displaying the peptide to blood cells (lymphocytes or granulocytes) [7]: bind
- binding of phage displaying the peptide to CML cells (CML cells): bind

Compound: NETTVREY [C9 11-24]
- binding of phage displaying the peptide to CLL cells (CLL cells): bind
- binding of phage displaying the peptide to AML cells (AML cells): bind
- binding of phage displaying the peptide to all myeloid cells, both malignant and nonmalignant [6]: bind
- binding of phage displaying the peptide to blood cells (lymphocytes or granulocytes) [7]: bind
- binding of phage displaying the peptide to CML cells (CML cells): bind

Compound: NHVCSRLG [B4(2)]
- binding of phage displaying the peptide to CLL cells (CLL cells): bind
- binding of phage displaying the peptide to AML cells (AML cells): bind
- binding of phage displaying the peptide to blood cells (lymphocytes or granulocytes) [7]: bind
- binding of phage displaying the peptide to CML cells (CML cells): bind

Compound: VSEDIYDA [E5 12-8B]
- binding of phage displaying the peptide to CLL cells (CLL cells): bind
- binding of phage displaying the peptide to blood cells (lymphocytes or granulocytes) [7]: bind
